Laboratory results published in patent US20080220499A1, “NOVEL PROTEASE FOR INDUSTRIAL APPLICATIONS” (priority 2006, published 2008).

Key:
Format in all cases: biochemical
[1] = tested on: protease isolated from Pseudomonas aeruginosa MCM B-327; assay: Effect of ingredients of detergents on protease activity; conditions: for effect of surfactant on protease activity (in words): 1%; for Enzyme activity: incubated 30 min prior to assay, Tris-HCl pH 8.0, 37° C., None = 42.77
Method: (§1) This example illustrates the effect of ingredients of detergents on activity of the protease isolated from Pseudomonas aeruginosa MCM B-327 when grown in soybean meal−tryptone (HiMedia) medium. The cell free supernatant was salt precipitated and used for this study in Tris-HCl buffer, pH 8.0 at 37° C. The enzyme and ingredients of detergent were incubated for 30 min prior to enzyme assay. The enzyme was stable in detergent ingredients while 20% inhibited by SDS.

[2] = tested on: protease isolated from Pseudomonas aeruginosa MCM B-327; assay: Effect of organic solvents on protease activity; conditions: for Enzyme activity: organic solvent 50% v/v, 30 min of incubation, Tris-HCl pH 8.0, 37° C., None = 42.77; for inhibition of the enzyme: 50% v/v, after 30 min of incubation
Method: The cell free supernatant was salt precipitated and used for this study in Tris-HCl buffer, pH 8.0 at 37° C.

[3] = tested on: protease isolated from Pseudomonas aeruginosa MCM B-327; assay: Effect of metal ions on protease activity; conditions: Tris-HCl pH 8.0, 37° C.; for Enzyme activity: None = 42.77
Method: This example illustrates the effect of metal ions on activity of the protease isolated from Pseudomonas aeruginosa MCM B-327 when grown in soybean meal−tryptone (HiMedia) medium. The cell free supernatant was salt precipitated and used for this study in Tris-HCl buffer, pH 8.0 at 37° C.

[4] = tested on: protease isolated from Pseudomonas aeruginosa MCM B-327; assay: Effect of inhibitors on protease activity; conditions: for Enzyme activity: incubated 30 min, None = 42.77
Method: as §1, with “inhibitors” for “ingredients of detergents”, “the inhibitor” for “ingredients of detergent”, “assay.” for “assay. The enzyme was stable in detergent ingredients while 20% inhibited by SDS.”

[5] = inhibitor 1 mM, Tris-HCl pH 8.0, 37° C.

Molecule | Enzyme activity [2] [U/mg precipitate] | effect of metal ion on enzyme activity (in words) [3] | Enzyme activity ([3]; metal ion at 5 mM) [U/mg precipitate] | also measured
Triton X100 | – | – | – | effect of surfactant on protease activity (in words) ([1]; 30 min): no inhibitory effect; Enzyme activity ([1]; detergent ingredient 1%): 41.49 U/mg precipitate
CC(C)=O [Acetone] | 13.68 | – | – | –
Cc1ccccc1 [Toluene] | 20.95 | – | – | inhibition of the enzyme [2]: 51%
CO [Methanol] | 14.11 | – | – | –
O=S(=O)([O-])[O-].[Fe+2] [FeSO4] | – | resistant to inhibition | 37.64 | –
CCO [Ethanol] | 3.84 | – | – | inhibition of the enzyme [2]: 91%
O=S(=O)([O-])[O-].[Mg+2] [MgSO4] | – | resistant to inhibition | 42.77 | –
CCCCCCCC/C=C\CCCCCCCC(=O)OCCOCC(OCCO)C1OCC(OCCO)C1OCCO (centres unmarked) [Tween 80] | – | – | – | effect of surfactant on protease activity (in words) ([1]; 30 min): no inhibitory effect; Enzyme activity ([1]; detergent ingredient 1%): 43.62 U/mg precipitate
O=P(O)(O)OP(=O)(O)OP(=O)(O)O [Sodium tripolyphosphate] | – | – | – | Enzyme activity ([1]; detergent ingredient 1%): 44.05 U/mg precipitate
O=S(=O)([O-])[O-].[Zn+2] [ZnSO4] | – | affected the enzyme activity considerably | 12.40 | –
[Cl-].[Na+] [NaCl] | – | resistant to inhibition | 41.06 | –
CCCCCCCCCCCCOS(=O)(=O)[O-].[Na+] [SDS] | – | – | – | inhibition of the enzyme ([1]; detergent ingredient 1%, 30 min): 20%; Enzyme activity ([1]; detergent ingredient 1%): 34.21 U/mg precipitate
CCCCCC [n-hexane] | 26.94 | – | – | –
[Ca+2].[Cl-].[Cl-] [CaCl2] | – | resistant to inhibition | 42.34 | –
NC(=O)CI [Iodoacetamide] | – | – | – | Enzyme activity [4, 5]: 44.05 U/mg precipitate; Enzyme activity ([4]; inhibitor 5 mM): 43.62 U/mg precipitate
c1ccccc1 [Benzene] | 11.54 | – | – | –
CC(C)CC(C)(C)C [Isooctane] | 28.65 | – | – | –
[Cl][Hg][Cl] [HgCl2] | – | affected the enzyme activity considerably | 6.84 | Enzyme activity ([3]; HgCl2 at 1 mM): 9.83 U/mg precipitate
CCCCC=O [1-pentanone] | 11.54 | – | – | –
m-p-xylene | 28.65 | – | – | –
O[C@@H](CS)[C@@H](O)CS [DTT, dithiothretol] | – | – | – | inhibition of the enzyme (in words) ([4]; 1 & 5 mM): completely inhibited; Enzyme activity [4, 5]: 0 U/mg precipitate; Enzyme activity ([4]; inhibitor 5 mM): 0 U/mg precipitate
O=S(=O)([O-])[O-].[Mn+2] [MnSO4] | – | resistant to inhibition | 37.21 | –
O=S(=O)(F)Cc1ccccc1 [PMSF, Phenyl methyl sulphonyl fluoride] | – | – | – | Enzyme activity [4, 5]: 40.20 U/mg precipitate; Enzyme activity ([4]; inhibitor 5 mM): 31.65 U/mg precipitate
O=S(=O)([O-])[O-].[Cu+2] [CuSO4] | – | affected the enzyme activity considerably | 10.69 | –
O=C(O)CN(CCN(CC(=O)O)CC(=O)O)CC(=O)O [EDTA, Ethylenediamine tetra acetic acid] | – | – | – | Enzyme activity ([4]; inhibitor 2 mM): 32.93 U/mg precipitate; Enzyme activity ([4]; inhibitor 5 mM): 30.36 U/mg precipitate
